Measured values taken from patent US20030118594A1, “STABLE FORMULATIONS OF MHC-PEPTIDE COMPLEXES” (priority 1995, published 2003).
Where two headings read alike, the source gives them in different places.

What was measured:
T-cells = assay: Toxicity of detergents to T-cells; format: cell-based
Method: A number of detergents were studied for their ability to solubilize human HLA-DR2 and MHC-peptide complexes. In addition the complexes prepared in the detergents were assayed for activity. A summary of structural and physical characteristics of various detergents used for solubilization of HLA-DR2 is presented in FIG. 1.

HLA-DR2 = assay: Occupancy of MHC molecules with peptide (loading); format: binding, human; conditions: DR2 and MBP(83-102)Y^83 complexes prepared in the named detergent
Method: To prepare the DR2-peptide complex, purified DR2 was dialyzed against 100 mM citrate buffer pH 6.0 containing 0.05% DM for 24 hours at 4° C. prior to the addition of MBP(83-102)Y^83 peptide. The reaction mixture was incubated at 37° C. for 96 hours and free peptide was removed by Sephacryl S200 gel filtration.
As noted in the figure, the occupancy of the MHC molecules (i.e., proportion of the molecules complexed with peptide) was 90% in DM, 40% in octylglucoside and 76% in Tween-80).

mouse [1] = assay: Safety Pharmacology: Neuropharm profile; format: in vivo; conditions: i.v., bolus
Method: (§1) Safety and toxicity studies were carried out for the intravenous administration of dodecyl-β-D-maltoside in various animal models.

mouse [2] = assay: Safety Pharmacology: Barbit Sleep Potent; format: in vivo; conditions: i.v., bolus
Method: as §1

rat = assay: Safety Pharmacology: Diuretic Assay; format: in vivo; conditions: i.v., bolus
Method: as §1

dog = assay: Safety Pharmacology: Cardiovasc Effects; format: in vivo; conditions: i.v.
Method: as §1

mouse [3] = assay: GLP Toxicology: Subacute - full histo; format: in vivo; conditions: i.v., QD14
Method: as §1

[4] = Aggregation assay by size-exclusion HPLC and SDS-PAGE; format: physicochemical; conditions: DM concentration below 0.05%, FIG. 4, 5
Method: Three non-ionic detergents (DM, OG, and Tween-80) were tested. The experiments were carried out as generally described in U.S. Pat. Nos. 5,130,297, 5,194,425, 5,260,422 and 5,284,935, all of which are incorporated herein by reference. Briefly, HLA-DR2 was purified from EBV-transformed lymphoblastoid cells [GM03107] obtained from the National Institute of General Medical Sciences human genetic mutant cell repository (Corinell Institute of Medical Research, NJ.). A triton X-100 cell lysate was prepared and applied to a L243 coupled sepharose-4B column and the bound DR2 was eluted in phosphate buffer containing 0.05% n-dodecyl β-D-maltoside (DM) detergent at pH 11.3. Fractions were immediately neutralized with 20% monobasic phosphate and the DR2 pool was collected through a DEAE ion exchange column in 20 mM phosphate buffer containing 0.5 M NaCl and 0.05% DM, pH 6.0. The flow through purified protein solution from the DEAE column was neutralized with 10% tribasic sodium phosphate, filtered through a 180 kD membrane and concentrated to 1 mg/ml. The final DR2 preparation was characterized by 13.5% SDS polyacrylamide gel electrophoresis followed by silver staining.
To prepare the DR2-peptide complex, purified DR2 was dialyzed against 100 mM citrate buffer pH 6.0 containing 0.05% DM for 24 hours at 4° C. prior to the addition of MBP(83-102)Y^83 peptide. […]

mouse [5] = assay: GLP Toxicology: Acute Range-finding; format: in vivo; conditions: i.v., 400 ug/kg, bolus
Method: as §1

various animal models = assay: Safety and toxicity studies, intravenous administration in various animal models; format: in vivo; conditions: i.v. administration at various tested doses, summary of Table 1
Method: as §1

With C[C@H](CCC(=O)NCCC[N+](C)(C)CCCS(=O)(=O)[O-])[C@H]1CC[C@H]2[C@@H]3[C@H](O)C[C@@H]4C[C@H](O)CC[C@]4(C)[C@H]3C[C@H](O)[C@]12C [CHAPS] the “toxicity to T-cells” value (T-cells; detergents for solubilization of HLA-DR2) was “toxic to T-cells”.

For CCCCCCCC/C=C\CCCCCCCC(=O)OCCOCC(OCCO)C1OCC(OCCO)C1OCCO (stereo not shown) [Tween-80], the “occupancy of the MHC molecules (proportion of the molecules complexed with peptide)” value (from here on “occupancy of the MHC molecules”) (HLA-DR2) was 76%.

In the case of CCCCCCCCCCCCO[C@@H]1O[C@H](CO)[C@@H](O[C@H]2O[C@H](CO)[C@@H](O)[C@H](O)[C@H]2O)[C@H](O)[C@H]1O [DM, dodecyl β-D maltoside], the “Results, Neuropharm profile” value (mouse [1]; 10 ug/kg) is reported as “No Effects”, the “Results, Neuropharm profile” value (mouse [1]; 100 ug/kg) is reported as “No Effects” and the “Results, Barbit Sleep Potent” value (mouse [2]; 10 ug/kg) is reported as “No Effects”. For the same compound, the “Results, Barbit Sleep Potent” value (mouse [2]; 100 ug/kg) was “No Effects”, the “Results, Diuretic Assay” value (rat; 10 ug/kg) was “No Effects” and the “Results, Diuretic Assay” value (rat; 100 ug/kg) was “No Effects”. The “occupancy of the MHC molecules” value (HLA-DR2) was 90%, the “Results, Cardiovasc Effects” value (dog; 10 ug/kg, bolus) was “No Effects” and the “Results, Cardiovasc Effects” value (dog; up if NOEL to 100 ug/kg) was “No Effects”. For the same compound, the “Results, Subacute - full histo” value (mouse [3]; 4 ug/kg) was “No Eff @ necr/clin-path”, the “Results, Subacute - full histo” value (mouse [3]; 40 ug/kg) was “No Effects” and the “Results, Subacute - full histo” value (mouse [3]; 400 ug/kg) was “D14 Spleen wt slightly”. For the same compound, the “aggregation level of DR2” value [4] was “increased aggregation level of DR2”, the “Results, Acute Range-finding” value (mouse [5]) was “poss kindey cortical” and the toxic effects (various animal models) was “no toxic effects”.

With CCCCCCCCO[C@@H]1O[C@H](CO)[C@@H](O)[C@H](O)[C@H]1O [octylglucoside, octyl glucoside] the “occupancy of the MHC molecules” value (HLA-DR2) was 40%.

In the case of Pluronic F-127, the “toxicity to T-cells” value (T-cells) is reported as “toxic to T-cells”.
